± gives the expanded uncertainty stated by the source.
Assay: xn = mol fraction of the nth substance listed
Settings: Gas, Buoyancy - hydrostatic balance with magnetic suspension - one sinker

[HH] [hydrogen] + N#N
Settings	mass density [kg/m3]
250.04 K, 11001 kPa, x2 = 0.9	137.2 ± 0.074
250.04 K, 11002 kPa, x2 = 0.5001	76.353 ± 0.047
250.04 K, 12001 kPa, x2 = 0.5001	82.831 ± 0.048
250.04 K, 12002 kPa, x2 = 0.9	149.273 ± 0.074
250.04 K, 13003 kPa, x2 = 0.5001	89.231 ± 0.047
250.04 K, 13005 kPa, x2 = 0.9	161.179 ± 0.075
250.04 K, 14001 kPa, x2 = 0.5001	95.51 ± 0.048
250.04 K, 15005 kPa, x2 = 0.5001	101.724 ± 0.049
250.04 K, 15008 kPa, x2 = 0.9	184.307 ± 0.075
250.04 K, 16003 kPa, x2 = 0.5001	107.801 ± 0.048
250.04 K, 17004 kPa, x2 = 0.5001	113.79 ± 0.049
250.04 K, 17014 kPa, x2 = 0.9	206.478 ± 0.076
250.04 K, 18007 kPa, x2 = 0.5001	119.684 ± 0.05
250.04 K, 18011 kPa, x2 = 0.9	217.113 ± 0.076
250.04 K, 19005 kPa, x2 = 0.5001	125.441 ± 0.05
250.04 K, 19653 kPa, x2 = 0.9	234.021 ± 0.079
250.04 K, 19934 kPa, x2 = 0.5001	130.7 ± 0.05
250.05 K, 14008 kPa, x2 = 0.9	172.872 ± 0.075
250.05 K, 16004 kPa, x2 = 0.9	195.446 ± 0.075
250.05 K, 19014 kPa, x2 = 0.9	227.523 ± 0.076
260.02 K, 999 kPa, x2 = 0.95	12.396 ± 0.067
260.02 K, 1998 kPa, x2 = 0.95	24.915 ± 0.068
260.02 K, 2987 kPa, x2 = 0.95	37.39 ± 0.069
260.02 K, 3998 kPa, x2 = 0.95	50.206 ± 0.07
260.02 K, 4998 kPa, x2 = 0.95	62.921 ± 0.071
260.02 K, 5998 kPa, x2 = 0.95	75.652 ± 0.072
260.02 K, 6997 kPa, x2 = 0.95	88.348 ± 0.072
260.02 K, 8004 kPa, x2 = 0.95	101.083 ± 0.073
260.02 K, 8999 kPa, x2 = 0.95	113.598 ± 0.074
260.02 K, 10003 kPa, x2 = 0.95	126.121 ± 0.074
260.02 K, 11004 kPa, x2 = 0.95	138.476 ± 0.075
260.02 K, 12004 kPa, x2 = 0.95	150.65 ± 0.075
260.02 K, 13007 kPa, x2 = 0.95	162.68 ± 0.076
260.02 K, 13989 kPa, x2 = 0.95	174.256 ± 0.076
260.02 K, 15009 kPa, x2 = 0.95	186.058 ± 0.076
260.02 K, 16012 kPa, x2 = 0.95	197.415 ± 0.076
260.02 K, 17003 kPa, x2 = 0.95	208.387 ± 0.076
260.02 K, 18018 kPa, x2 = 0.95	219.361 ± 0.076
260.02 K, 19020 kPa, x2 = 0.95	229.93 ± 0.077
260.02 K, 19954 kPa, x2 = 0.95	239.529 ± 0.08
260.03 K, 998 kPa, x2 = 0.9	11.773 ± 0.064
260.03 K, 2000 kPa, x2 = 0.9	23.676 ± 0.065
260.04 K, 2987 kPa, x2 = 0.9	35.462 ± 0.066
260.04 K, 3998 kPa, x2 = 0.9	47.566 ± 0.067
260.04 K, 4998 kPa, x2 = 0.9	59.561 ± 0.068
260.04 K, 5998 kPa, x2 = 0.9	71.547 ± 0.068
260.04 K, 6999 kPa, x2 = 0.9	83.502 ± 0.069
260.04 K, 7999 kPa, x2 = 0.9	95.394 ± 0.069
260.04 K, 9000 kPa, x2 = 0.9	107.209 ± 0.07
260.04 K, 10001 kPa, x2 = 0.9	118.929 ± 0.071
260.04 K, 11002 kPa, x2 = 0.9	130.507 ± 0.071
260.04 K, 12001 kPa, x2 = 0.9	141.918 ± 0.071
260.04 K, 13005 kPa, x2 = 0.9	153.211 ± 0.072
260.04 K, 14004 kPa, x2 = 0.9	164.255 ± 0.072
260.04 K, 15004 kPa, x2 = 0.9	175.116 ± 0.072
260.04 K, 16007 kPa, x2 = 0.9	185.789 ± 0.072
260.04 K, 17014 kPa, x2 = 0.9	196.279 ± 0.073
260.04 K, 18009 kPa, x2 = 0.9	206.415 ± 0.073
260.04 K, 19010 kPa, x2 = 0.9	216.361 ± 0.074
260.04 K, 19736 kPa, x2 = 0.9	223.429 ± 0.077
274.98 K, 997 kPa, x2 = 0.9	11.103 ± 0.061
274.98 K, 1997 kPa, x2 = 0.9	22.285 ± 0.062
274.99 K, 997 kPa, x2 = 0.95	11.688 ± 0.064
274.99 K, 998 kPa, x2 = 0.5001	6.537 ± 0.04
274.99 K, 1998 kPa, x2 = 0.5001	13.041 ± 0.041
274.99 K, 1998 kPa, x2 = 0.95	23.478 ± 0.065
274.99 K, 2986 kPa, x2 = 0.95	35.164 ± 0.065
274.99 K, 2997 kPa, x2 = 0.9	33.49 ± 0.062
274.99 K, 2998 kPa, x2 = 0.5001	19.501 ± 0.041
274.99 K, 3997 kPa, x2 = 0.5001	25.901 ± 0.041
274.99 K, 3997 kPa, x2 = 0.9	44.699 ± 0.063
274.99 K, 3997 kPa, x2 = 0.95	47.147 ± 0.066
274.99 K, 4997 kPa, x2 = 0.5001	32.248 ± 0.042
274.99 K, 4997 kPa, x2 = 0.95	58.999 ± 0.067
274.99 K, 4998 kPa, x2 = 0.9	55.901 ± 0.064
274.99 K, 5997 kPa, x2 = 0.5001	38.535 ± 0.042
274.99 K, 5998 kPa, x2 = 0.9	67.065 ± 0.064
274.99 K, 5998 kPa, x2 = 0.95	70.84 ± 0.067
274.99 K, 6997 kPa, x2 = 0.5001	44.758 ± 0.042
274.99 K, 6998 kPa, x2 = 0.9	78.183 ± 0.065
274.99 K, 6998 kPa, x2 = 0.95	82.636 ± 0.068
274.99 K, 7997 kPa, x2 = 0.5001	50.911 ± 0.043
274.99 K, 7998 kPa, x2 = 0.9	89.232 ± 0.065
274.99 K, 8000 kPa, x2 = 0.95	94.385 ± 0.069
274.99 K, 8998 kPa, x2 = 0.5001	57.003 ± 0.043
274.99 K, 9000 kPa, x2 = 0.9	100.212 ± 0.066
274.99 K, 9000 kPa, x2 = 0.95	106.023 ± 0.069
274.99 K, 9998 kPa, x2 = 0.5001	63.009 ± 0.043
274.99 K, 9998 kPa, x2 = 0.9	111.047 ± 0.066
274.99 K, 10001 kPa, x2 = 0.95	117.586 ± 0.07
274.99 K, 10998 kPa, x2 = 0.5001	68.948 ± 0.044
274.99 K, 11001 kPa, x2 = 0.9	121.821 ± 0.067
274.99 K, 11002 kPa, x2 = 0.95	129.012 ± 0.07
274.99 K, 11996 kPa, x2 = 0.5001	74.789 ± 0.044
274.99 K, 12001 kPa, x2 = 0.9	132.405 ± 0.067
274.99 K, 12003 kPa, x2 = 0.95	140.289 ± 0.07
274.99 K, 13000 kPa, x2 = 0.5001	80.586 ± 0.044
274.99 K, 13002 kPa, x2 = 0.9	142.866 ± 0.067
274.99 K, 13002 kPa, x2 = 0.95	151.394 ± 0.071
274.99 K, 13998 kPa, x2 = 0.5001	86.267 ± 0.045

— the NIST ThermoML archive (doi:10.1021/acs.jced.7b00694)
